Measurements taken from patent US20140259881A1, “EXTERMINATION TECHNIQUES UTILIZING TERMITE EGG VOLATILE CALLING PHEROMONE AND QUEEN PHEROMONE” (National University Corporation Okayama University, priority 2009, published 2014).
Entries after “also recorded” stand apart in the source; their conditions may differ.

Tests used:
[1] = test system: Reticulitermes speratus worker termites; test: Rate of carrying mimic eggs coated with reference pheromone plus volatile test sample into the egg mass; type: in vivo; conditions: 10% aqueous solution of sample added to lysozyme + β-glucosidase reference pheromone on 0.5 mm glass beads, 25° C., compared to no addition, Tukey-Kramer HSD test
Method: 2.0 mg of white-egg lysozyme and 1.0 mg of β-glucosidase were dissolved in a 50% aqueous solution of glycerol (a mixture of lysozyme and β-glucosidase). To this reference pheromone solution were added a 10% aqueous solution of each of the following volatile ingredient samples to examine the effect of enhancing the activity of carrying mimic eggs. The added samples were: butyl butyrate, 1-butanol, 2-butyl butyrate, 2-butanol, 2-methyl-1-butanol, and n-butyl acetate.
To 100 glass beads having a diameter of 0.5 mm were added 2.0 μL/bead of the above-described reference pheromone solution and 2.0 μL/bead of each of the test sample solutions and mixed well for coating the surface of the beads with each test sample.
At 24 hours after the start of the experiment, the rate of carrying mimic eggs into the egg mass was determined (for each of the test samples, experiments were made on the same procedures). Three repetitions were made for each treatment. Carrying rates were subjected to arcsine-root transformation, followed by statistical comparison by analysis of variance and Tukey-Kramer HSD test. […] FIGS. 6 to 11 show rates of carrying mimic eggs coated with each of the test samples into the egg mass after 24 hours.

[2] = test system: Reticulitermes speratus worker termites; test: as above; type: in vivo; conditions: preliminary experiments
[3] = test system: Reticulitermes speratus worker termites; test: Inhibitory effect on the differentiation into new termite queens by queen volatile pheromone samples; conditions: volatile from unglazed ball, added every day; 25 days; 25° C.; compared to controls; Tukey-Kramer HSD test
termite = conditions: patent documents 2 and 3; cited from earlier work

Compound | activity of carrying mimic eggs / egg recognition activity (rate of carrying mimic eggs after 24 hours) [1] | further results
CCCCO [1-butanol] | remarkable increase in the egg recognition activity; also recorded: significantly enhance the activity of carrying mimic eggs | 
CCC(C)O (stereo not drawn) [2-butanol] | remarkable increase in the egg recognition activity; also recorded: significantly enhance the activity of carrying mimic eggs | 
CCCC(=O)OC(C)CC (stereo not drawn) [2-butyl butyrate] | no statistical significance, but were observed to have a tendency to enhance the activity of carrying mimic eggs; also recorded: enhance the activity of carrying mimic eggs, as compared to no addition, but there was no difference of statistical significance | 
CCC(C)CO (stereo not drawn) [2-methyl-1-butanol] | remarkable increase in the egg recognition activity; also recorded: significantly enhance the activity of carrying mimic eggs | 
CCCCOC(=O)CCC [butyl butyrate] | no statistical significance, but were observed to have a tendency to enhance the activity of carrying mimic eggs; also recorded: enhance the activity of carrying mimic eggs, as compared to no addition, but there was no difference of statistical significance | 
CCCC(=O)O [butyric acid] |  | effect of increasing the egg-carrying activity [2]: no effect of increasing the egg-carrying activity
CCCCOC(C)=O [n-butyl acetate, reference compound] | no effect of enhancing the activity of carrying mimic eggs | differentiation from worker termite into new termite queens [3]: no effect of inhibiting the differentiation into new termite queens
lysozyme |  | egg-recognition pheromone activity alone (termite): demonstrated to have egg-recognition pheromone activity alone
